From US20200038416A1, “METHODS OF TREATING CARDIAC CONDUCTION DEFECTS USING AMINOSTEROL COMPOSITIONS” (Enterin, Inc., priority 2018, published 2020)
“Also recorded” adds a separate entry of the source.

What was measured:
[1] = Oral bioavailability / systemic absorption estimate versus prior IV pharmacokinetic data; assay type: in vivo, human; conditions: this study, PD patients
Experimental: PK data were collected on the 10 patients enrolled in Stage 1 and 10 patients enrolled in Stage 2 to determine the extent of systemic absorption. In Stage 1, PK data were obtained at each visit, pre-medication, at 1, 2, 4, 8 and 24 hours (Table 10). In Stage 2, PK was measured on days 1 and 6 of the randomization period pre-medication, at 1, 2, 4 and 8 hours (Table 11).

[2] = Prior clinical trials of intravenous squalamine; assay type: in vivo, human; conditions: prior studies
Experimental: Systemic absorption of the aminosterol following oral administration was negligible both in this study and in prior studies involving mice, rats and dogs. […] The topical action would also explain why adverse events were largely confined to the gastrointestinal tract.
In the current clinical trial, squalamine (ENT-01) was administered orally to subjects with PD who have long standing constipation. Although this trial was the first in man oral dosing study of ENT-01, humans have long been exposed to low doses of squalamine (milligram to microgram) in the various commercial dogfish shark liver extracts available as nutraceuticals (e.g., Squalamax).

[3] = system: mice with constipation due to overexpression of human αS; conditions: mouse models of PD, oral administration; cited from earlier work
[4] = system: IPANs (intrinsic primary afferent neuron); conditions: perfusion through lumen of isolated bowel segment; cited from earlier work
[5] = mice, systemic administration; into the duodenum through the biliary tract; cited from earlier work
[6] = prior studies; cited from earlier work

CC(C)[C@@H](CC[C@@H](C)[C@H]1CC[C@H]2[C@@H]3[C@H](O)C[C@H]4C[C@@H](NCCCNCCCCN)CC[C@]4(C)[C@H]3CC[C@]12C)OS(=O)(=O)O [squalamine]
systemic absorption following oral administration [1]: negligible; also recorded: not significantly absorbed | systemic blood levels after intravenous versus oral administration [2]: one thousand-fold greater | gastrointestinal motility [3]: stimulates gastro-intestinal motility; also recorded: reverse gastrointestinal dysmotility | effect on IPANs of the ENS [4]: excitation of IPANs | clearance and excretion [5]: cleared by the liver and excreted as the intact molecule | effect of intravenous administration on gastrointestinal motility [6]: not associated with increased gastrointestinal motility
